5 compounds from the supplement of paper PMC11061612 can be followed below.

Test in all cases: Bliss excess, mean over the matrix (fraction); higher = more synergy
The subject of assay [1] is NUGC-4 (Gastric Carcinoma). The essentials:
(§1)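 After 24 hours at 37°C and 5% CO2 in 1536-well plates, cells in DMEM/F12 or RPMI plus 10% FBS received two-drug dose matrices for 72 hours. Viability came from CellTiter-Glo 2.0 luminescence and was scaled as inhibition, anchored at 0 by vehicle wells and at 1 by blank wells. Combination Emax is taken as the second-highest inhibition in the matrix, and Bliss excess as the observed combination effect less EA + EB − EA·EB, with EA and EB the single-agent effects.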

For assay [2], the system named is SW1573 (Lung Adenocarcinoma). A digest of the protocol:
as §1

Assay [3] deals with L-428 (Hodgkin's Lymphoma). The essentials:
as §1

In assay [4] the test system is HuCCT1 (Biliary Tract Carcinoma). A digest of the protocol: as §1
Assay [5] concerns BE-13 (T-Lymphoblastic Leukemia). A digest of the protocol:
as §1

Assay [6] relates to SNU-449 (Hepatocellular Carcinoma). The essentials: as §1
For assay [7], the system named is HH (T-Cell Non-Hodgkin's Lymphoma). A digest of the protocol:
as §1

Assay [8] has as its system SNU-16 (Gastric Carcinoma). A digest of the protocol:
as §1

For assay [9], the system named is SAS (Oral Cavity Carcinoma). The essentials:
as §1

Assay [10] deals with FTC-133 (Thyroid Gland Carcinoma). The essentials: as §1
Assay [11] relates to KMRC-20 (Kidney Carcinoma). The essentials:
as §1

The test system of assay [12] is OV-56 (Ovarian Carcinoma). A digest of the protocol: as §1
The test system of another assay is MPP-89 (Mesothelioma). The essentials:
as §1

In assay [13] the test system is NCI-H209 (Small Cell Lung Carcinoma). The essentials:
as §1

In assay [14] the test system is LNZTA3WT4 (Low Grade Glioma). A digest of the protocol:
as §1

Another assay concerns GAMG (Glioblastoma). A digest of the protocol:
as §1

For assay [15], the system named is SW1710 (Bladder Carcinoma). A digest of the protocol: as §1
Another assay relates to LOXIMVI (Melanoma). The essentials:
as §1

Assay [16] deals with BFTC-909 (Kidney Carcinoma). The essentials:
as §1

The subject of assay [17] is HeLa (Cervical Carcinoma). A digest of the protocol: as §1

On to `CCN(CCO)CCCOc1ccc2c(Nc3cc(CC(=O)Nc4cccc(F)c4)[nH]n3)ncnc2c1` [AZD2811] + C=CCn1c(=O)c2cnc(Nc3ccc(N4CCN(C)CC4)cc3)nc2n1-c1cccc(C(C)(C)O)n1 [AZD1775] (first compound max 1 µM, partner max 1 µM), for which the Bliss excess in assay [1] was -0.0708; in [2], 0.0297; in assay [3] it was 0.0106; in assay [4], -0.0344; in assay [5], -0.0298; in [6], -0.0028. Also, the Bliss excess in assay [7] was -0.0179; in assay [8], 0.0538; in assay [9] it was -0.0526; in [10], 0.0641; in assay [11], -0.0562; in assay [12] it was -0.0152. In addition, the Bliss excess with MPP-89 (Mesothelioma) was -0.0173; in assay [13] it was 0.089; in assay [14] it was -0.0501; in the assay on GAMG (Glioblastoma), 0.0224; in [15] it was 0.0084; with LOXIMVI (Melanoma), 0.0351. The Bliss excess was found to be 0.0293 in assay [16] and 0.0278 in assay [17].

As for `Cn1cnc2c(F)c(Nc3ccc(Br)cc3Cl)c(C(=O)NOCCO)cc21` [Selumetinib] + C[C@@H]1COCCN1C2=NC(=NC(=C2)C3(CC3)[S@](=N)(=O)C)C4=C5C=CNC5=NC=C4 [AZD6738] (first compound max 10 µM, 7x7, partner max 10 µM), the Bliss excess was 0.0069 in [1]; -0.0587 in assay [2]; -0.0311 in [3]; -0.0164 in assay [4]; -0.0181 in assay [5]; -0.0403 in assay [6]. Besides, the Bliss excess in [7] was -0.038; in assay [8], 0.0038; in assay [9] it was -0.012; in [10], -0.0828; in assay [11] it was -0.0496; in assay [12], -0.0239. For the same compound, the Bliss excess was -0.0424 in the assay on MPP-89 (Mesothelioma); -0.0403 in assay [13]; -0.0661 in [14]; -0.0398 in the assay with GAMG (Glioblastoma); -0.0481 in assay [15]; 0.0322 with LOXIMVI (Melanoma). The Bliss excess was -0.025 in assay [16] and 0.0113 in [17].

`COc1nnc2ccc(N3CCC(c4ccc(OCCN5CCN(C)C(=O)[C@H]5C)cc4)CC3)nn12` [AZD5153] + Cc1c2c(nn1C)CSCc1cc(n(C)n1)CSc1cc(c3ccccc3c1)OCCCc1c(C(=O)O)n(C)c3c-2c(Cl)ccc13 [AZD5991] (first compound max 1 µM, 7x7, partner max 1 µM): the Bliss excess is 0.0081 in assay [1]; -0.0366 in assay [2]; -0.023 in assay [3]; -0.0543 in assay [4]; 0.0075 in assay [5]; -0.0368 in assay [6]. In addition, the Bliss excess in [7] is 0.0776; in assay [8], 0.0403; in assay [9] it was -0.0191; in assay [10] it was -0.0112; in [11], -0.0135; in [12], -0.0093. The Bliss excess is -0.0399 in the assay with MPP-89 (Mesothelioma); 0.0546 in assay [13]; 0.0112 in assay [14]; -0.0043 with GAMG (Glioblastoma); -0.0389 in [15]; 0.0393 in the assay on LOXIMVI (Melanoma). The Bliss excess in assay [16] was -0.0034; in assay [17] it was 0.0151.

As to `COc1cccc(OCCCN)c1-c1cc(Nc2cnc(C#N)cn2)n[nH]1` [Prexasertib] + CN(C)CCCOc1ccc(-c2ccc3ncc4c(c3c2)n(C2CCOCC2)c(=O)n4C)cn1 [AZD0156] (first compound max 1 µM, 7x7, partner max 1 µM), the Bliss excess in [1] was 0.0697; in assay [2] it was -0.0129; in assay [3], -0.0144; in assay [4], -0.0357; in assay [5] it was -0.0338; in assay [6], -0.0227. The Bliss excess was -0.0001 in assay [7]; -0.0135 in [8]; 0.0109 in [9]; -0.0596 in [10]; -0.0382 in [11]; -0.0442 in assay [12]. In addition, the Bliss excess is -0.0242 with MPP-89 (Mesothelioma); 0.0016 in [13]; -0.0321 in assay [14]; -0.0261 in the assay on GAMG (Glioblastoma); -0.022 in assay [15]; 0.0398 in the assay with LOXIMVI (Melanoma). Also, the Bliss excess was -0.0397 in assay [16] and 0.0079 in assay [17].

In the case of `COc1nnc2ccc(N3CCC(c4ccc(OCCN5CCN(C)C(=O)[C@H]5C)cc4)CC3)nn12` [AZD5153] + C=CCn1c(=O)c2cnc(Nc3ccc(N4CCN(C)CC4)cc3)nc2n1-c1cccc(C(C)(C)O)n1 [AZD1775] (first compound max 1 µM, partner max 1 µM), the Bliss excess in assay [1] is -0.0478; in [2], -0.0388; in assay [3], -0.0411; in assay [4], -0.0778; in assay [5] it was -0.0879; in [6], -0.0033. Also, the Bliss excess in assay [7] is -0.0442; in assay [8], -0.0385; in [9] it was -0.0302; in assay [10], -0.0099; in [11], -0.0446; in assay [12], -0.0105. For the same compound, the Bliss excess with MPP-89 (Mesothelioma) was -0.0669; in assay [13] it was 0.0223; in assay [14], -0.0356; with GAMG (Glioblastoma), -0.0516; in assay [15], -0.0582; in the assay on LOXIMVI (Melanoma), -0.0494. Moreover, the Bliss excess in assay [16] is -0.0723; in [17] it was -0.072.
